{
  "source": "patent US11427549B2",
  "about": "“Pyrimidinyloxy benzo-fused compounds as herbicides” (FMC Corporation, priority 2017, dated 2022)",
  "key": {"[1]": {"test_system": "corn (Zea mays)", "assay": "Test A postemergence, corn", "format": "in vivo", "details": "Zea mays, post-emergence, 240 h, 0 to 100 scale (0 no effect, 100 complete control)"}, "[2]": {"test_system": "kochia (Kochia scoparia)", "assay": "Test A preemergence, kochia", "format": "in vivo", "details": "Bassia scoparia, pre-emergence, 240 h, 0 to 100 scale (0 no effect, 100 complete control), read-out: Plant response rating, Kochia"}, "[3]": {"test_system": "ducksalad (Heteranthera limosa)", "assay": "Test B flooded paddy test, ducksalad", "details": "Heteranthera limosa, read-out: Plant response rating, Ducksalad (0 to 100 scale, 0 is no effect, 100 is complete control)"}, "[4]": {"test_system": "ragweed (common ragweed, Ambrosia elatior)", "assay": "Test A postemergence, ragweed", "format": "in vivo", "details": "Ambrosia artemisiifolia, post-emergence, 240 h, 0 to 100 scale (0 no effect, 100 complete control), read-out: Plant response rating, Ragweed"}, "[5]": {"test_system": "kochia (Kochia scoparia)", "assay": "Test A postemergence, kochia", "format": "in vivo", "details": "Bassia scoparia, post-emergence, 240 h, 0 to 100 scale (0 no effect, 100 complete control), read-out: Plant response rating, Kochia"}, "[6]": {"test_system": "ragweed (common ragweed, Ambrosia elatior)", "assay": "Test A preemergence, ragweed", "format": "in vivo", "details": "Ambrosia artemisiifolia, pre-emergence, 240 h, 0 to 100 scale (0 no effect, 100 complete control), read-out: Plant response rating, Ragweed"}, "[7]": {"test_system": "ryegrass, Italian (Italian ryegrass, Lolium multiflorum)", "assay": "Test A preemergence, ryegrass, Italian", "format": "in vivo", "details": "Lolium multiflorum, pre-emergence, 240 h, 0 to 100 scale (0 no effect, 100 complete control), read-out: Plant response rating, Ryegrass, Italian"}, "[8]": {"test_system": "ryegrass, Italian (Italian ryegrass, Lolium multiflorum)", "assay": "Test A postemergence, ryegrass, Italian", "format": "in vivo", "details": "Lolium multiflorum, post-emergence, 240 h, 0 to 100 scale (0 no effect, 100 complete control), read-out: Plant response rating, Ryegrass, Italian"}, "[9]": {"test_system": "galium (catchweed bedstraw, Galium aparine)", "assay": "Test A postemergence, galium", "format": "in vivo", "details": "Galium, post-emergence, 240 h, 0 to 100 scale (0 no effect, 100 complete control), read-out: Plant response rating, Galium"}, "[10]": {"test_system": "pigweed (Amaranthus retroflexus)", "assay": "Test A preemergence, pigweed", "format": "in vivo", "details": "Amaranthus retroflexus, pre-emergence, 240 h, 0 to 100 scale (0 no effect, 100 complete control), read-out: Plant response rating, Pigweed"}, "[11]": {"test_system": "barnyardgrass (Echinochloa crus-galli)", "assay": "Test B flooded paddy test, barnyardgrass", "details": "Echinochloa crus-galli, read-out: Plant response rating, Barnyardgrass (0 to 100 scale, 0 is no effect, 100 is complete control)"}, "[12]": {"test_system": "foxtail, green (green foxtail, Setaria viridis)", "assay": "Test A postemergence, foxtail, green", "format": "in vivo", "details": "Setaria, post-emergence, 240 h, 0 to 100 scale (0 no effect, 100 complete control), read-out: Plant response rating, Foxtail, Green"}, "[13]": {"test_system": "wheat (Triticum aestivum)", "assay": "Test A postemergence, wheat", "format": "in vivo", "details": "Triticum aestivum, post-emergence, 240 h, 0 to 100 scale (0 no effect, 100 complete control), read-out: Plant response rating, Wheat"}, "[14]": {"test_system": "barnyardgrass (Echinochloa crus-galli)", "assay": "Test A preemergence, barnyardgrass", "format": "in vivo", "details": "Echinochloa crus-galli, pre-emergence, 240 h, 0 to 100 scale (0 no effect, 100 complete control), read-out: Plant response rating, Barnyardgrass"}, "[15]": {"test_system": "pigweed (Amaranthus retroflexus)", "assay": "Test A postemergence, pigweed", "format": "in vivo", "details": "Amaranthus retroflexus, post-emergence, 240 h, 0 to 100 scale (0 no effect, 100 complete control), read-out: Plant response rating, Pigweed"}, "[16]": {"test_system": "barnyardgrass (Echinochloa crus-galli)", "assay": "Test A postemergence, barnyardgrass", "format": "in vivo", "details": "Echinochloa crus-galli, post-emergence, 240 h, 0 to 100 scale (0 no effect, 100 complete control), read-out: Plant response rating, Barnyardgrass"}, "[17]": {"test_system": "blackgrass (Alopecurus myosuroides)", "assay": "Test A postemergence, blackgrass", "format": "in vivo", "details": "Alopecurus myosuroides, post-emergence, 240 h, 0 to 100 scale (0 no effect, 100 complete control), read-out: Plant response rating, Blackgrass"}, "[18]": {"test_system": "rice (Oryza sativa)", "assay": "Test B flooded paddy test, rice", "details": "Oryza sativa, read-out: Plant response rating, Rice (0 to 100 scale, 0 is no effect, 100 is complete control)"}},
  "data": [
    {"smiles": "OC1(CCC(F)(F)F)CCc2cccc(Oc3ncc(Cl)cn3)c21", "note": "(stereo not drawn) [Compound 14, 7-[(5-Chloro-2-pyrimidinyl)oxy]-2,3-dihydro-1-(3,3,3-trifluoropropyl)-1H-inden-1-ol]", "values": [
      {"measurement": "Corn plant response rating (crop injury, 0 = no effect, 100 = complete kill) at 125 g/ha", "setting": "[1]; 125 g ai/ha", "value": 10, "unit": "%"},
      {"measurement": "Corn plant response rating (crop injury, 0 = no effect, 100 = complete kill) at 500 g/ha", "setting": "[1]; 500 g ai/ha", "value": 40, "unit": "%"},
      {"measurement": "pest or weed control at 125 g/ha", "setting": "[2]; 125 g ai/ha", "value": 50, "unit": "%"},
      {"measurement": "pest or weed control at 500 g/ha", "setting": "[2]; 500 g ai/ha", "value": 100, "unit": "%"},
      {"measurement": "pest or weed control at 250 g/ha", "setting": "[3]", "value": 40, "unit": "%"},
      {"measurement": "pest or weed control at 125 g/ha", "setting": "[4]; 125 g ai/ha", "value": 70, "unit": "%"},
      {"measurement": "pest or weed control at 500 g/ha", "setting": "[4]; 500 g ai/ha", "value": 90, "unit": "%"},
      {"measurement": "pest or weed control at 125 g/ha", "setting": "[5]; 125 g ai/ha", "value": 80, "unit": "%"},
      {"measurement": "pest or weed control at 500 g/ha", "setting": "[5]; 500 g ai/ha", "value": 80, "unit": "%"},
      {"measurement": "pest or weed control at 125 g/ha", "setting": "[6]; 125 g ai/ha", "value": 40, "unit": "%"},
      {"measurement": "pest or weed control at 500 g/ha", "setting": "[6]; 500 g ai/ha", "value": 70, "unit": "%"},
      {"measurement": "pest or weed control at 125 g/ha", "setting": "[7]; 125 g ai/ha", "value": 10, "unit": "%"},
      {"measurement": "pest or weed control at 500 g/ha", "setting": "[7]; 500 g ai/ha", "value": 60, "unit": "%"},
      {"measurement": "pest or weed control at 125 g/ha", "setting": "[8]; 125 g ai/ha", "value": 20, "unit": "%"},
      {"measurement": "pest or weed control at 500 g/ha", "setting": "[8]; 500 g ai/ha", "value": 90, "unit": "%"},
      {"measurement": "pest or weed control at 125 g/ha", "setting": "[9]; 125 g ai/ha", "value": 50, "unit": "%"},
      {"measurement": "pest or weed control at 500 g/ha", "setting": "[9]; 500 g ai/ha", "value": 90, "unit": "%"},
      {"measurement": "pest or weed control at 125 g/ha", "setting": "[10]; 125 g ai/ha", "value": 100, "unit": "%"},
      {"measurement": "pest or weed control at 500 g/ha", "setting": "[10]; 500 g ai/ha", "value": 100, "unit": "%"},
      {"measurement": "pest or weed control at 250 g/ha", "setting": "[11]", "value": 0, "unit": "%"},
      {"measurement": "pest or weed control at 125 g/ha", "setting": "[12]; 125 g ai/ha", "value": 0, "unit": "%"},
      {"measurement": "pest or weed control at 500 g/ha", "setting": "[12]; 500 g ai/ha", "value": 50, "unit": "%"},
      {"measurement": "plant injury at 125 g/ha", "setting": "[13]; 125 g ai/ha", "value": 30, "unit": "%"},
      {"measurement": "plant injury at 500 g/ha", "setting": "[13]; 500 g ai/ha", "value": 60, "unit": "%"},
      {"measurement": "pest or weed control at 125 g/ha", "setting": "[14]; 125 g ai/ha", "value": 20, "unit": "%"},
      {"measurement": "pest or weed control at 500 g/ha", "setting": "[14]; 500 g ai/ha", "value": 90, "unit": "%"},
      {"measurement": "pest or weed control at 125 g/ha", "setting": "[15]; 125 g ai/ha", "value": 50, "unit": "%"},
      {"measurement": "pest or weed control at 500 g/ha", "setting": "[15]; 500 g ai/ha", "value": 100, "unit": "%"},
      {"measurement": "pest or weed control at 125 g/ha", "setting": "[16]; 125 g ai/ha", "value": 30, "unit": "%"},
      {"measurement": "pest or weed control at 500 g/ha", "setting": "[16]; 500 g ai/ha", "value": 80, "unit": "%"},
      {"measurement": "pest or weed control at 125 g/ha", "setting": "[17]; 125 g ai/ha", "value": 40, "unit": "%"},
      {"measurement": "pest or weed control at 500 g/ha", "setting": "[17]; 500 g ai/ha", "value": 90, "unit": "%"},
      {"measurement": "plant injury at 250 g/ha", "setting": "[18]", "value": 0, "unit": "%"}
    ]}
  ]
}
